Data on twelve compounds can be found in PubChem BioAssay AID624274 (Broad Institute, 2012).

Values joined by “and” are separate entries in the source; they are usually repeats but may differ in a detail not shown here. Equal values may be shown once.

This assay deals with Protein disulfide-isomerase (Homo sapiens) (UniProt P07237). Nature of the assay: PDI inhibitors, insulin turbidity readout, dose response, biochemical, absorbance, cherry-picked samples, set 2 (AID 624274). The note with it: PDI insulin reduction turbidity, absorbance 650 nm.
Chain of Protein disulfide-isomerase (Homo sapiens) (P07237 whole entry, looked up): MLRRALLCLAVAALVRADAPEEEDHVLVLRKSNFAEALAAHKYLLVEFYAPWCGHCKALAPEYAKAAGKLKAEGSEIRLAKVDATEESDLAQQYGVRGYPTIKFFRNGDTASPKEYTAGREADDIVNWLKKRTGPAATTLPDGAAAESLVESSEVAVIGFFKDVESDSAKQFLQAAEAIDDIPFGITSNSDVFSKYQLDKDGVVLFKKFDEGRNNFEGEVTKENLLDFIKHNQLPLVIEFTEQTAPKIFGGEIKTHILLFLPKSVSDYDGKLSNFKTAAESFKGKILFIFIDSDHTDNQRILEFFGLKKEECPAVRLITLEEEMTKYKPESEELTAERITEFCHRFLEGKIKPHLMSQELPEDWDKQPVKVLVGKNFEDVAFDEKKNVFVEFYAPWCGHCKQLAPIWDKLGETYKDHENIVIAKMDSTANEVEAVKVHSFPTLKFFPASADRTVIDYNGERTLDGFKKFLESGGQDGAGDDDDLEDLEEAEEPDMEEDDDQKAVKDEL
What is called AC50 is the midpoint of the concentration-response curve, whichever way the signal moves. Take `C[C@@H]1CN([C@@H](C)CO)C(=O)c2cccc(NS(C)(=O)=O)c2O[C@H]1CN(C)Cc1ccc(Oc2ccccc2)cc1`: the half-maximal activity concentration (AC50) is 19.5 µM and 7.04 µM. Regarding `COc1ccc(/C=C2\CN(Cc3ccccc3)C/C(=C\c3ccc(OC)c(O)c3)C2=O)cc1O`, the AC50 is 2.98 µM. In the case of `C[C@@H]1CN([C@@H](C)CO)C(=O)c2cc(NC(=O)Cc3cn(C)c4ccccc34)ccc2O[C@H]1CN(C)S(=O)(=O)c1ccc(F)cc1` it was 2.08 µM; in that of `O=C1NC[C@H](Cc2ccc(O)cc2)N(CC2CCCCC2)C1=O`, 19.5 µM; in that of `Cn1cnnc1Sc1ccc(/C=C/C(=O)c2ccc(O)cc2)cc1[N+](=O)[O-]`, 0.422 µM. Next, `Cc1noc(C)c1S(=O)(=O)Nc1ccc2c(c1)CC(=O)N([C@H](C)CO)C[C@H](C)[C@H](CN(C)S(=O)(=O)c1ccccc1)O2`: 19.5 µM. Take `Oc1ccc(/C=C/c2nc(-c3ccccc3O)n(-c3ccccc3)n2)cc1`: the AC50 is 18.8 µM. Next, `CCOC(=O)c1c(CN2CCN(CCO)CC2)n(-c2ccccc2)c2cc(Br)c(O)cc12`: 0.61 µM; `O=C1C[C@@H](c2ccc(O[C@@H]3O[C@H](CO)[C@@H](O)[C@H](O)[C@H]3O)cc2)Oc2cc(O)ccc21`: 15.6 µM; `C[C@H](CO)N1C[C@H](C)[C@H](CN(C)S(=O)(=O)c2ccc(F)cc2)Oc2ccc(NC(=O)Cc3cn(C)c4ccccc34)cc2C1=O`: 19.5 µM. With `COc1cccc2c1C(=O)c1c(O)c3c(c(O)c1C2=O)CC(O)(C(C)=NO)CC3OC1CC(N)C(O)C(C)O1` (configuration not stated), the AC50 was 16.9 µM. Consider `NNC(=O)c1cc(-c2ccc(O)cc2)nc2ccc(Br)cc12`, for which the AC50 is 19.5 µM.
